Consider 4 compounds from US9144248B2, “Cinnamamides as savory flavorings” (SYMRISE AG, priority 2011, dated 2015).

“Also recorded” adds a separate entry of the source.

What all share (type): in vivo, human
A short description of assay [1]: Profiling of cinnamides in American beef extract base together with monosodium glutamate (enhancing effect), trained panel, descriptors scored 0-9. The note with it: for enhancement of the monosodium glutamate effect: sample (iv) versus sample (ii) base + 0.05% MSG, FIG. 3: 20 ppm + 0.0025% monosodium glutamate in beef extract base. The method, then: An American beef extract as the base, a corresponding sauce mixed with monosodium glutamate, a corresponding sauce mixed with the cinnamide and a corresponding base mixed with monosodium glutamate were in each case administered blind individually to 15-25 trained panelists for profiling. Using the descriptors previously decided upon by discussion (mouth-fill, salty, metallic, meaty, bitter, mouth-watering, barbecued-roasted, sweet, sour, lingering) the strength of these was assessed on a scale of 0 (imperceptible) through 9 (very strong). The individual results of the panelists were averaged. […]
Here again (i) a beef extract as the base is compared with (ii) such a base with the addition of 0.05% monosodium glutamate, (iii) such a base with the addition of 0.0025% monosodium glutamate and (iv) such a base with the addition of 0.0025% monosodium glutamate and 5 ppm rubescenamine (3). […]
The test subjects assessed the strength of the stated flavors by giving a score on a scale of 0 (imperceptible) through 9 (very strong corresponding taste). The mean values of the respective scorings are shown. […]

Assay [2] in a line: Simple profiling of cinnamides dissolved in water, tasting by a group of experts with open discussion. The method, then:
The compounds were dissolved in water in the stated concentration and assessed by a group of experts by tasting with open discussion.

The nature of assay [3]: Profiling of cinnamides in a complex base (American beef extract) by 15-25 trained panelists, descriptors scored 0-9, compared with MSG. The settings on record: for umami taste character compared with monosodium glutamate: comparison base + 0.05 wt. % MSG. The procedure: An American beef extract as the base, a corresponding base mixed with monosodium glutamate and a corresponding base mixed with the cinnamide were in each case administered blind individually to 15-25 trained panelists for profiling. Using the descriptors previously decided upon by discussion (mouth-fill, salty, metallic, meaty, bitter, mouth-watering, barbecued-roasted, sweet, sour, lingering) the strength of these was assessed on a scale of 0 (imperceptible) through 9 (very strong). The individual results of the panelists were averaged.
In the spider chart attached as FIG. 1 the profile of an American beef extract as the base (i) is compared with such a base with the addition of 10 ppm (iii) or 50 ppm rubemamine ([…]) (iv) and with a sample (ii) of such a base with the addition of 0.05 wt. % MSG (monosodium glutamate).
In the spider chart attached as FIG. 2 the profile of an American beef extract as the base (i) is compared with such a base with the addition of 5 ppm (iii) or 10 ppm rubescenamine (compound (3)) (iv) and with a sample (ii) of such a base with the addition of 0.05 wt. % MSG (monosodium glutamate).
The taste of a 0.5% American beef extract as base (i) was compared in a tasting by a panel of trained test subjects with the taste of such a base with 10 ppm (iii) or 50 ppm (iv) rubemamine (1) added, and such a base with 0.05 wt. % MSG added (ii).
The test subjects assessed the strength of the stated flavors by giving a score on a scale of 0 (imperceptible) through 9 (very strong corresponding taste). The mean values of the respective scorings are shown.
The taste of a 0.5% American beef extract as base (i) was compared in a tasting by a panel of trained test subjects with the taste of such a base with 5 ppm (iii) or 10 ppm (iv) rubescenamine (3) added, and such a base with 0.05 wt. % MSG added (ii).

The mark [4] stands for this setting: 5 ppm + 0.0025% monosodium glutamate in beef extract base, listed as rubescenamine (3).

`COc1ccc(/C=C/C(=O)NCCc2ccc(OC)c(OC)c2)cc1OC` [Compound (1), rubemamine]: the “enhancement of the monosodium glutamate effect: sample (iv) versus sample (ii) base + 0.05% MSG, FIG. 3” value was “hardly distinguishable from one another other than a slightly lower sweetness” in assay [1] and “virtually indistinguishable” in assay [1] (listed as rubemamine (1)). Further, in assay [2] (10 mg/kg), the “Taste profile (concentration in mg/kg)” value was “Umami (10 mg/kg)”. In addition, the “umami taste character compared with monosodium glutamate” value in assay [3] (10 mg/kg test concentration in American beef extract base) was “umami taste that is very similar to that of monosodium glutamate”.

As to `COc1ccc(/C=C/C(=O)NCCc2ccc3c(c2)OCO3)cc1OC` [Compound (3), rubescenamine], the “enhancement of the monosodium glutamate effect: sample (iv) versus sample (iii) base + 0.0025% MSG, FIG. 4” value in assay [1] (5 ppm + 0.0025% monosodium glutamate in beef extract base) is recorded as “in respect of virtually all parameters was assessed as stronger than sample (iii)”. Moreover, in assay [1] (setting [4]), the “"salty" parameter: sample (iv) versus sample (ii) base + 0.05% MSG, FIG. 4” value was “assessed similarly to sample (ii)” and the “enhancement of the monosodium glutamate effect: sample (iv) versus sample (iii) base + 0.0025% MSG, FIG. 4” value is recorded as “assessed more strongly on virtually all parameters than sample (iii)”. The “Taste profile (concentration in mg/kg)” value in assay [2] (10 mg/kg) is recorded as “Umami, otherwise neutral (10 mg/kg)”. Also, in assay [3] (5 mg/kg test concentration in American beef extract base), the “umami taste character compared with monosodium glutamate” value is on record as “umami taste that is very similar to that of monosodium glutamate”. The “taste profile, strength of descriptors (scale 0-9), FIG. 2 curve iii” value in assay [3] (5 ppm in American beef extract base) is listed as “strong effect”. Also, the “taste profile, strength of descriptors (scale 0-9), FIG. 2 curve iv, versus sample (ii) base + 0.05 wt. % MSG” value in assay [3] (10 ppm in American beef extract base) is “for most descriptors is able to achieve a similarly strong assessment to sample (ii)”.

As to `O=C(/C=C/c1ccccc1)NCCc1ccc2c(c1)OCO2` [Compound (9), zanthomamine], in assay [1] (50 ppm + 0.0025% monosodium glutamate in beef extract base), the “enhancement of the monosodium glutamate effect: sample (iv) versus sample (iii) base + 0.0025% MSG, FIG. 5” value is “assessed more strongly on virtually all parameters than sample (iii)”. Further, the “Taste profile (concentration in mg/kg)” value in assay [2] (50 mg/kg) was “Somewhat delayed onset of umami effect (50 mg/kg)”.

On to `N[C@@H](CCC(=O)O)C(=O)[O-].[Na+]` [monosodium glutamate, reference compound], for which the “taste profile of sample (iii) versus base (i) without addition, FIG. 3” value in assay [1] (0.0025% monosodium glutamate alone in beef extract base) is listed as “perceived as less strong than the sample (i) without the addition; also recorded: perceived only slightly less strongly than sample (i) without the addition”.
